# Source: patent US11807906B2, “Peroxisome biomarkers in HIV disease progression and peroxisome activating drugs for HIV treatment” (priority 2017, dated 2023)
# “Also recorded” adds a separate entry of the source.
# Columns and labels:
# [1] = tested on: HIV p24 protein; test: HIV p24 immunoblot in niclosamide-pretreated HeLa CD4+ cells; assay type: cell-based; conditions: HeLa CD4+ cells pretreated 24 hrs, HIV MOI=0.5, 48 hrs, relative to DMSO, FIG. 18/19
# Description: (§1) HeLa CD4+ cells were pretreated with the indicated concentrations of the peroxisome proliferator, niclosamide for 24 hrs or DMSO alone (vehicle control). Cells were then infected with HIV, MOI=0.5) for 48 hrs after which levels of the viral protein p24 and peroxisomal protein were measured by immunoblotting. Actin served as loading control.
# [2] = tested on: peroxisomal protein PEX7; test: PEX7 immunoblot in niclosamide-pretreated HIV-infected HeLa CD4+ cells; assay type: cell-based, human; conditions: 48 hrs, relative to DMSO
# Description: as §1
# [3] = tested on: HIV; test: HIV p24 ELISA in niclosamide-pretreated HeLa CD4+ cells; assay type: cell-based; conditions: HeLa CD4+ cells pretreated 24 hrs, HIV MOI=0.5, 48 hrs, vs DMSO, FIG. 17
# Description: HeLa CD4+ cells were pretreated with the indicated concentrations of the peroxisome proliferator, niclosamide for 24 hrs or DMSO alone (vehicle control). Cells were then infected with HIV, MOI=0.5) for 48 hrs after which levels of the viral protein p24 were measured by ELISA.
# [4] = tested on: niclosamide-treated cells; test: Relative cell viability by ATP levels in cell lysates; assay type: cell-based; conditions: below 1 micromolar, 72 hours, vs DMSO, FIG. 20
# Description: Cells treated with niclosamide or DMSO were harvested after 72 hours. Relative cell viability was determined by measuring ATP levels in the cell lysates.
structure (smiles),measurement,setting,value
"O=C(Nc1ccc([N+](=O)[O-])cc1Cl)c1cc(Cl)ccc1O [niclosamide, 5-chloro-N-(2-chloro-4-nitrophenyl)-2-hydroxybenzamide]",HIV p24 protein level by immunoblotting,[1],inhibits expression; also recorded: inhibits HIV replication
same,HIV p24 protein level by immunoblotting,[1]; listed as Niclosamide,inhibited expression; also recorded: inhibited HIV replication
same,PEX7 protein level by immunoblotting,[2]; FIG. 19,increases expression
same,PEX7 protein level by immunoblotting,"[2]; FIG. 19, listed as Niclosamide",increased expression
same,HIV replication (levels of viral protein p24 by ELISA),[3],potently and significantly inhibits HIV replication
same,HIV replication (levels of viral protein p24 by ELISA),[3]; listed as Niclosamide,significantly inhibited HIV replication
same,"cytotoxicity (relative cell viability, ATP levels)",[4],not cytotoxic
